According to patent US12485103B2, “Insulin secretion-promoting agent and blood sugar level improver using same, diabetes improver, and food” (REFINE HOLDINGS CO., LTD., priority 2019, dated 2025):

Tested on: cell lines derived from mouse pancreatic β-cells
Assay: Insulin secretion into the culture medium measured by ELISA
Assay type: cell-based
Conditions: low- and high-glucose Ringer's solutions; 1 μg/mL or 10 μg/mL (any concentration); stimulated for 30 minutes
Description: Low- and high-glucose Ringer's solutions in the presence of 10 μg/mL pentadecanoic acid triglyceride were added in vitro to cell lines derived from mouse pancreatic β-cells. The cells were then stimulated for 30 minutes.
Separately, as a control, ethanol at concentration of 0.1% (v/v) were added to the cells.
Insulin secreted into the culture medium was measured by ELISA.
Low- and high-glucose Ringer's solutions in the presence of 1 μg/mL or 10 μg/mL pentadecanoic acid (PA in the Figure) were added in vitro to cell lines derived from mouse pancreatic β-cells. The cells were then stimulated for 30 minutes.

Question: Which “effect on insulin secretion” value does the source give for `CCCCCCCCCCCCCCC(=O)O` [pentadecanoic acid] here?
Answer: The value was “no effect”.
